# Measured values from patent publication US6599499B1, “Uses of diterpenoid triepoxides as an anti-proliferative agent” (priority 1999, dated 2003).
# “Also recorded” adds a separate entry of the source.
# Key:
# p53 = p53 translocation into the nucleus, sub-cellular fractionation of MCF-7 cells; assay type: cell-based, human; details: MCF-7, triptolide 20 ng/ml
# Procedure: Sub-cellular fractionation of MCF-7 cells. After treatment with triptolide (5 or 20 ng/ml) and/or doxorubicin (100 nM) cytosolic and nuclear extracts were prepared as previously described (Lee et al. (1988) Gene Anal Tech 5:22-31) and 50 μg of each extract was used in SDS/PAGE immunoblot analysis of p53.
# [1] = Observable toxicity in treated mice (body weight, activity, respiration); assay type: in vivo
# Procedure: PG490-88 (0.75 mg/kg) as measured by a change in body weight, altered activity or labored respiration.
# H23 tumor cells = test: Nude mouse xenograft, prevention of H23 tumor formation; assay type: in vivo, nude mice
# Procedure: Nude mouse xenograft model. […] Tumor cells were grown and harvested as described above.
# PG490-88 prevents human tumor development in nude mice. The results reported above show cytotoxicity of PG490 on tumor cells in vitro. To extend these studies to an in vivo setting using human tumor cell xenografts, PG490-88 was used, a more easily administered, water soluble prodrug of PG490. H23 tumor cells were implanted intradermally in nude mice and the animals were left untreated or were injected IP daily with PG490-88 starting at the time of implantation. Tumors arose in 5/5 of the untreated mice but no tumors were observed after 5 or 7 weeks of dosing with PG490-88 at doses ranging from 0.25 to 0.75 mg/kg/day (Table 1). PG490-88 treatment was stopped after week 5 in 3 mice per group and was continued for an additional 2 weeks in 2 mice per group. A visible tumor arose during the sixth week in one animal in each group in which PG490-88 dosed at 0.5 mg/kg/day or less was stopped but no more visible tumors appeared in these groups after week 6 (Table 1).
# Nude mice were implanted with H23 tumor cells (day 0). Mice were left untreated, or were injected IP with PG490-88 daily from the day of tumor cell implantation for 5 consecutive days per week. PG490-88 was administered for 5 weeks. The untreated group consisted of 5 mice. Three mice in each of the treatment groups received PG490-88 for 5 weeks, and 2 mice in each of these groups were given PG490-88 for 2 additional weeks (7 weeks total). The tumor appeared only in mice in which treatment had been stopped after 5 weeks.
# Dx5 cells = details: cited from earlier work
compound,measurement,setting,value
"CC(C)[C@]12O[C@H]1[C@@H]1O[C@]13[C@]1(O[C@H]1C[C@H]1C4=C(CC[C@@]13C)C(=O)OC4)[C@@H]2O [PG490, triptolide]",localisation of the majority of p53,p53,translocated into nuclei
"CC(C)[C@]12O[C@H]1[C@@H]1O[C@]13[C@]1(O[C@H]1C[C@H]1C4=C(CC[C@@]13C)C(=O)OC4)[C@@H]2OC(=O)CCC(=O)[O-].[Na+] [PG490-88, 14-succinyl triptolide sodium salt]","observable toxicity (change in body weight, altered activity or labored respiration)",[1]; PG490-88 0.75 mg/kg,no observable toxicity
same,tolerability,[1]; triptolide dosage on molar comparison to PG490-88 70 μg/mouse/week,well tolerated
same,Number of mice in group with a tumor,"H23 tumor cells; PG490-88 0.25 mg/kg/day IP, Week 5",0/5
same,Number of mice in group with a tumor,"H23 tumor cells; PG490-88 0.25 mg/kg/day IP, Week 6",1/5
same,Number of mice in group with a tumor,"H23 tumor cells; PG490-88 0.25 mg/kg/day IP, Week 10",1/5
same,Number of mice in group with a tumor,"H23 tumor cells; PG490-88 0.375 mg/kg/day IP, Week 5",0/5
same,Number of mice in group with a tumor,"H23 tumor cells; PG490-88 0.375 mg/kg/day IP, Week 6",1/5
same,Number of mice in group with a tumor,"H23 tumor cells; PG490-88 0.375 mg/kg/day IP, Week 10",1/5
same,Number of mice in group with a tumor,"H23 tumor cells; PG490-88 0.5 mg/kg/day IP, Week 5",0/5
same,Number of mice in group with a tumor,"H23 tumor cells; PG490-88 0.5 mg/kg/day IP, Week 6",1/5
same,Number of mice in group with a tumor,"H23 tumor cells; PG490-88 0.5 mg/kg/day IP, Week 10",1/5
same,Number of mice in group with a tumor,"H23 tumor cells; PG490-88 0.75 mg/kg/day IP, Week 5",0/5
same,Number of mice in group with a tumor,"H23 tumor cells; PG490-88 0.75 mg/kg/day IP, Week 6",0/5
same,Number of mice in group with a tumor,"H23 tumor cells; PG490-88 0.75 mg/kg/day IP, Week 10",0/5
same,H23 tumor formation,"H23 tumor cells; PG490-88 0.75 mg/kg/day, 10 weeks of observation, sodium salt, 0.75 mg/kg/day",No visible tumors developed in any of the mice; also recorded: completely prevented
"COc1cccc2c1C(=O)c1c(O)c3c(c(O)c1C2=O)C[C@@](O)(C(=O)CO)C[C@@H]3O[C@H]1C[C@H](N)[C@H](O)[C@H](C)O1 [doxorubicin, reference compound]",fold more resistant than the MES-SA parent cell line,Dx5 cells,100 fold
